Test results from the supplement of paper PMC10307832.

Columns and labels:
Test in all cases: relative viability (nuclei count vs DMSO), 5 days (fraction); higher = more cells survive
[1] = compound: CCN1C(=O)C2=CC(=C(N=C2N(C1=O)C3CC3)N)C(=O)N + CC(C)C[C@H](NC(=O)[C@H](Cc1ccccc1)NC(=O)c1cnccn1)B(O)O [Bortezomib] (partner 0.002 µM)
Summary of the method: (§1)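 Each reported value is a median over duplicate plates. It expresses relative viability: treated-well nuclei count divided by vehicle-well nuclei count. Lung cancer cell lines in 1536-well plates were dosed by pin tool a day after seeding, alone with one drug or with a fixed anchor-drug dose plus five library-drug doses (not always all listed) in √10 steps, and nuclei were counted after 5 days.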

[2] = compound: CCN1C(=O)C2=CC(=C(N=C2N(C1=O)C3CC3)N)C(=O)N + NC(=O)Nc1cc(-c2cccc(F)c2)sc1C(=O)N[C@H]1CCCNC1 [AZD7762] (partner 0.2 µM)
Summary of the method: as §1

[3] = compound: CCN1C(=O)C2=CC(=C(N=C2N(C1=O)C3CC3)N)C(=O)N + C[C@]1(O)C[C@@H](c2nc(-c3ccc4ccc(-c5ccccc5)nc4c3)c3c(N)nccn32)C1 [Linsitinib] (partner 1 µM)
Summary of the method: as §1

[4] = compound: CCN1C(=O)C2=CC(=C(N=C2N(C1=O)C3CC3)N)C(=O)N + Nc1ncn([C@H]2C[C@H](O)[C@@H](CO)O2)c(=O)n1 [Decitabine] (partner 2 µM)
Summary of the method: as §1

[5] = compound: CCN1C(=O)C2=CC(=C(N=C2N(C1=O)C3CC3)N)C(=O)N + N=C(N)NC(=N)NCCc1ccccc1 [Phenformin] (partner 250 µM)
Summary of the method: as §1

| Cell Line | relative viability ([1]; first compound 0.8 µM) | relative viability ([1]; first compound 2.53 µM) | relative viability ([1]; first compound 8 µM) | relative viability ([2]; first compound 0.253 µM) | relative viability ([2]; first compound 0.8 µM) | relative viability ([2]; first compound 2.53 µM) | relative viability ([2]; first compound 8 µM) | relative viability ([3]; first compound 0.253 µM) | relative viability ([3]; first compound 0.8 µM) | relative viability ([3]; first compound 2.53 µM) | relative viability ([3]; first compound 8 µM) | relative viability ([4]; first compound 0.8 µM) | relative viability ([4]; first compound 2.53 µM) | relative viability ([4]; first compound 8 µM) | relative viability ([5]; first compound 0.253 µM) | relative viability ([5]; first compound 0.8 µM) | relative viability ([5]; first compound 2.53 µM) | relative viability ([5]; first compound 8 µM) | relative viability ([1]; first compound 0.253 µM) | relative viability ([4]; first compound 0.253 µM) |
| --- | --- | --- | --- | --- | --- | --- | --- | --- | --- | --- | --- | --- | --- | --- | --- | --- | --- | --- | --- | --- |
| NCI-H596 | 0.807 | 1.11 | 1.01 | 1.12 | 0.998 | 1.26 | 1.24 | 0.991 | 1.11 | 0.926 | 1.18 | 0.925 | 0.955 | 0.951 | 0.707 | 0.72 | 0.769 | 0.628 | – | – |
| NCI-H647 | 1.05 | 0.951 | 0.784 | 0.537 | – | 0.547 | 0.581 | 1.11 | 0.995 | 1.08 | 1.09 | 0.411 | 0.458 | 0.433 | 0.418 | 0.519 | 0.428 | 0.637 | 0.92 | 0.444 |
| NCI-H650 | 0.701 | 0.935 | 0.701 | 1.14 | 0.781 | 0.999 | 1.3 | 0.949 | 0.636 | 0.957 | 0.697 | 0.325 | 0.329 | 0.283 | 0.502 | 0.388 | 0.448 | 0.433 | 1.03 | 0.331 |
| NCI-H727 | 0.843 | 0.805 | 0.875 | 0.61 | 0.534 | 0.726 | 0.577 | 0.297 | 0.354 | 0.282 | 0.272 | 0.842 | 0.802 | 0.676 | 0.625 | 0.455 | 0.459 | 0.666 | 0.806 | 0.882 |
| NCI-H838 | 0.887 | 0.891 | 0.912 | 0.908 | 0.951 | 0.961 | 0.908 | 1.06 | 0.895 | 0.974 | 0.99 | 0.426 | 0.411 | 0.451 | 0.607 | 0.589 | 0.551 | 0.545 | 0.857 | 0.469 |
| NCI-H1355 | 1.3 | 1.22 | 1.25 | 0.798 | 0.821 | 0.756 | 0.691 | 0.846 | 0.891 | 0.808 | 0.687 | 0.331 | 0.382 | 0.339 | 0.463 | 0.473 | 0.451 | 0.436 | 1.22 | 0.325 |
| NCI-H1437 | 0.543 | 0.515 | 0.618 | 1.03 | 1.09 | 1.17 | 1.14 | 0.929 | 1.04 | 1.01 | 1.11 | 0.578 | 0.591 | 0.509 | 0.269 | 0.363 | 0.334 | 0.276 | 0.489 | 0.654 |
| NCI-H1651 | 0.897 | 0.964 | 0.858 | 0.463 | 0.434 | 0.442 | 0.399 | 0.953 | 1.1 | 0.902 | 1.04 | 0.585 | 0.582 | 0.386 | 0.297 | 0.326 | 0.328 | 0.313 | 0.996 | 0.534 |
